This is an account of results in US20230416331A1, “PEPTIDE CONJUGATES OF PEPTIDIC TUBULIN INHIBITORS AS THERAPEUTICS” (priority 2021, published 2023).

Where a SMILES comes first, the peptide text is derived from it. [ ]: non-standard residue; d: D form. The star is where a group is joined. Dolaproine = CO[C@@H]([C@@H]1CCCN1)[C@@H](C)C(=O)O; Dil = CC[C@H](C)[C@H](NC)[C@@H](CC(=O)O)OC; X1 = C[C@@H](N*)[C@@H](O)c1ccccc1; NMeV = CN[C@H](C(=O)O)C(C)C

For data set [1], the system named is HCT116 colorectal cancer flank tumors. As to the kind of experiment: Efficacy of Compound 5 in a HCT116 colorectal xenograft model (Example N). It is filed as in vivo, nude mice. The conditions noted are these: 1, 5 and 10 mg/kg IP QDx4. Here is the method: Mice were administered intraperitoneal (IP) doses of vehicle, 1, 5, or 10 mg/kg Compound 5.
Data set [2] deals with HCT116 cells. The data set can be described thus: In vitro cell cycle arrest functional assay (propidium iodide, flow cytometry). It is filed as cell-based. The settings on record: Homo sapiens, HCT-116, 24 h incubation, read-out: IC50 of dose responsive accumulation in G2/M. How it is done:
Cell Incubation with MMAE and Compound 2 and Staining with Propidium Iodide
HCT116 cells were seeded in 6-well tissue culture plates at 500,000 cells per well in 2 mL of DMEM and incubated overnight in a 37° C., 5% CO2 incubator. 200 μL of dilutions of MMAE and Compound 2 which were made at 10× concentrations in DMEM+4% DMSO were added to appropriate wells of the 6-well plates and plates were incubated for 24 hours. After exposure of HCT116 cells to either MMAE or Compound 2, cells were harvested for propidium iodide staining and flow cytometry. Media was collected from each well and transferred into conical 15 mL centrifuge tubes to collect nonadherent cells. PBS (1 mL) was added to wash wells and was then transferred to the 15 mL tubes. Tryp-LE (1 mL) was added to each well and plates were incubated for 5 minutes in a 37° C., 5% CO2 incubator until the cells lifted off the well surface. A solution of DMEM+10% fetal bovine serum (1 mL) was added to each well. Wells were triturated and cells transferred to tubes. […] Cell counts and viability for each sample was assessed by trypan blue exclusion on a Bio-Rad TC20 cell counter. […]
An aliquot (1 mL) of each cell suspension was transferred into a deep-well polypropylene plate. […] Propidium iodide-stained cells were analyzed using a BD Acuri flow cytometer.

Data set [3] is described as follows: Tissue pharmacokinetics of Compound 2 in a mouse model (MMAE in tumor, muscle, bone marrow). It is filed as in vivo, athymic nude mice bearing HCT116 tumors. The settings on record: single IP 0.5 mg/kg MMAE or 3 mg/kg Compound 2; 4, 24, 48 h; LCMS. How it is done:
When xenografts reached a minimal volume of 300 mm^3, mice were administered a single intraperitoneal injection of 0.5 mg/kg MMAE or 3 mg/kg Compound 2 prepared in a vehicle of 5% mannitol in citrate. Tumor, quadriceps muscle and bone marrow samples were collected from fed, anesthetized mice at 4, 24 and 48 hours after compound administration. MMAE concentrations in tissues were determined via LCMS.
A 75 μL volume of acetonitrile:formic acid (1000:1, v:v) containing internal standard (MMAE-D8) to the wells of a 96-well protein precipitation plate resting on top of a 0.700 mL 96-well LoBind polypropylene plate. Double blank and carryover sample wells received 75 μL of acetonitrile:formic acid (1000:1, v:v) without internal standard. A 25 μL volume of each matrix sample was added to the plate wells containing internal standard. Fortified samples were vortexed at 700 rpm for 1 minute and centrifuged at 3000 rpm for 2 minutes at 4° C. The protein precipitation plate was discarded. A 50 μL volume of mobile phase A (acetonitrile:water:200 mM ammonium formate (90:5:5, v:v:v)) was added to the 96-well polypropylene collection plate which was covered with a silicone cap mat. Final samples were vortexed at 700 rpm for 2 minutes and analysis was accomplished by injecting a 2 μL sample onto an LC-MS/MS system. […]

For data set [4], the system named is HCT116 HER2 negative colorectal flank tumors. As to the kind of experiment: Efficacy in a HCT116 colorectal xenograft model (Example E). It is filed as in vivo, nude mice. The settings on record: IP QDx2. Here is the method: Mice were administered intraperitoneal (IP) doses of vehicle, 0.25 mg/kg MMAE or 40 mg/kg Compound 1 (equivalent 7 mg/kg unconjugated MMAE).

Consider `CC[C@H](C)[C@@H]([C@@H](CC(=O)N1CCC[C@H]1[C@H](OC)[C@@H](C)C(=O)N[C@H](C)[C@@H](O)c1ccccc1)OC)N(C)C(=O)[C@@H](NC(=O)[C@H](C(C)C)N(C)C(=O)OCc1ccc(NC(=O)O[C@H]2CCCC[C@@H]2SSC[C@H](NC(=O)[C@H](Cc2c[nH]c3ccccc23)NC(=O)[C@H](CC(C)C)NC(=O)[C@H](CC(C)C)NC(=O)[C@H](CC(=O)O)NC(=O)[C@H](CC(C)C)NC(=O)[C@H](CC(C)C)NC(=O)[C@H](CC(C)C)NC(=O)[C@@H](NC(=O)[C@H](CC(=O)O)NC(=O)[C@@H](NC(=O)[C@@H]2CCCN2C(=O)[C@H](Cc2ccccc2)NC(=O)[C@H](CC(C)C)NC(=O)[C@H](CC(C)C)NC(=O)[C@H](CC(=O)O)NC(=O)[C@H](CC(C)C)NC(=O)[C@H](Cc2ccc(O)cc2)NC(=O)[C@H](C)NC(=O)[C@H](CCCNC(=N)N)NC(=O)[C@H](Cc2c[nH]c3ccccc23)NC(=O)[C@@H]2CCCN2C(=O)[C@H](CC(N)=O)NC(=O)[C@H](CCC(N)=O)NC(=O)[C@H](CC(=O)O)NC(=O)[C@H](CC(=O)O)NC(=O)[C@H](C)N)[C@@H](C)O)[C@@H](C)O)C(=O)NCC(N)=O)cc1)C(C)C` [Compound 5], for which, in data set [1], the “efficacy (mean tumor volume)” value is reported as “dose responsive efficacy”.
Consider `CC[C@H](C)[C@@H]([C@@H](CC(=O)N1CCC[C@H]1[C@H](OC)[C@@H](C)C(=O)N[C@H](C)[C@@H](O)c1ccccc1)OC)N(C)C(=O)[C@@H](NC(=O)[C@@H](NC)C(C)C)C(C)C` [MMAE, monomethyl auristatin E] (H-[NMeV]V[Dil][Dolaproine]-X1), for which the IC50 in data set [2] came to 2.6 nM. Also, in data set [3], the “distribution of unconjugated MMAE to tumor, muscle and bone marrow” value is reported as “indiscriminate distribution of MMAE across all tissues”. The “animals removed from the study by day” value in data set [4] (0.25 mg/kg MMAE) is at most 6 days. The “change in body weight” value in data set [4] (0.25 mg/kg MMAE or 40 mg/kg Compound 1 (7 mg/kg MMAE equivalent)) is on record as “rapid decline in body weight”.
